Data as given in patent publication US20060069132A1, “Azolecarboxamide herbicides” (priority 2004, published 2006).

Assays:
[1] = system: velvetleaf; experiment: Test A pre-/postemergence herbicide test; assay type: in vivo, Abutilon theophrasti
In short: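 Greenhouse injury scoring (0–100, complete control = 100) at approximately ten days follows simultaneous pre- and postemergence application. Soil received a directed spray after seeding; seedlings of 2–10 cm at the one- to two-leaf stage were sprayed to runoff.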

[2] = system: corn; experiment: Test B pre-/postemergence herbicide test; assay type: in vivo, Zea mays
In short: (§1)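 Plants compared with untreated controls 13–15 days post-treatment and given a visual 0–100 injury score. Applications: preemergence to seeds; postemergence at 1- to 4-leaf (2–18 cm); paddy species flooded, 2-leaf stage. Vehicle non-phytotoxic, surfactant included.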

[3] = system: large crabgrass; experiment: Test B pre-/postemergence herbicide test; assay type: in vivo, Digitaria sanguinalis
In short: as §1

[4] = system: Surinam grass; experiment: Test C pre-/postemergence herbicide test; assay type: in vivo, Urochloa decumbens
In short: (§2)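 Pre/post spray; non-phytotoxic solvent + surfactant. Post-timing 1–4 leaves, 2–18 cm. Read-out: visual % control vs untreated, day 12–14, greenhouse.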

[5] = system: cocklebur; experiment: Test C pre-/postemergence herbicide test; assay type: in vivo, Xanthium strumarium
In short: as §2

[6] = system: eastern black nightshade; experiment: Test C pre-/postemergence herbicide test; assay type: in vivo, Solanum ptycanthum
In short: as §2

[7] = system: pigweed; experiment: Test C pre-/postemergence herbicide test; assay type: in vivo, Amaranthus retroflexus
In short: as §2

[8] = system: soybean; experiment: Test C pre-/postemergence herbicide test; assay type: in vivo, Glycine max
In short: as §2

[9] = system: velvetleaf; experiment: Test C pre-/postemergence herbicide test; assay type: in vivo, Abutilon theophrasti
In short: as §2

[10] = Postemergence, 2000 g ai/ha, 0 to 100 scale, 0 no effect, 100 complete control
[11] = 125 g ai/ha, 0 = no effect, 100 = complete control, preemergence
[12] = 500 g ai/ha, visual rating 0-100, 0 no effect, 100 complete control, preemergence
[13] = postemergence, 125 g ai/ha, visual rating, scale 0 (no effect) to 100 (complete control)
[14] = postemergence, 500 g ai/ha, visual rating, scale 0 (no effect) to 100 (complete control)
[15] = 62 g ai/ha, preemergence, scale 0 to 100
[16] = 125 g ai/ha, scale 0 (no effect) to 100 (complete control), visual, 12 to 14 days, preemergence
[17] = 250 g ai/ha, scale 0-100, preemergence
[18] = Preemergence, 500 g ai/ha, scale 0 to 100, 0 no effect, 100 complete control
[19] = Postemergence, 500 g ai/ha, visual rating after 13 to 15 days, scale 0 (no effect) to 100 (complete control)
[20] = Preemergence, 500 g ai/ha, scale 0 to 100
[21] = preemergence, 125 g ai/ha, 0 to 100 scale, 0 is no effect, 100 is complete control
[22] = 31 g ai/ha, preemergence, scale 0 to 100
[23] = 250 g ai/ha, scale 0 to 100 (0 no effect, 100 complete control), visual, 12 to 14 days, preemergence
[24] = Postemergence, 250 g ai/ha, scale 0 to 100, 0 no effect, 100 complete control
[25] = postemergence, 125 g ai/ha, scale 0 to 100
[26] = postemergence, 62 g ai/ha, scale 0 to 100

## C=CCNC(=O)c1cccc(NC(=O)c2sc(C(C)(C)C)nc2C)c1 [Compound 202]
[1]; Postemergence, 500 g ai/ha, 0 to 100 scale, 0 no effect, 100 complete control
  Velvetleaf plant response rating: 30
[1]; [10]
  Plant response rating, Velvetleaf: 30
[1]; Preemergence, 2000 g ai/ha, visual rating, 0 to 100 scale (0 no effect, 100 complete control)
  Velvetleaf plant response rating: 85
[1]; preemergence, 500 g ai/ha, visual injury, 0 to 100 scale (0 no effect, 100 complete control)
  Velvetleaf plant response rating: 35
[2]; [11]
  Corn plant response rating (0 to 100 scale): 0
[2]; [12]
  Plant response rating, Corn: 20
[2]; [13]
  Corn plant response rating: 10
[2]; [14]
  Corn plant response rating: 10
[3]; [11]
  Crabgrass, Large plant response rating (0 to 100 scale): 60
[3]; [12]
  Plant response rating, Crabgrass, Large: 100
[3]; [13]
  Crabgrass, Large plant response rating: 0
[3]; [14]
  Crabgrass, Large plant response rating: 10
[4]; [15]
  Plant response rating, Surinam Grass: 10
[4]; [16]
  Plant response rating, Surinam Grass: 20
[4]; [17]
  Plant response rating, Surinam Grass: 40
[4]; [18]
  Surinam Grass plant response rating: 60
[5]; [15]
  Plant response rating, Cocklebur: 0
[5]; [16]
  Plant response rating, Cocklebur: 0
[5]; [17]
  Plant response rating, Cocklebur: 10
[5]; [18]
  Cocklebur plant response rating: 20
[6]; [15]
  Plant response rating, Nightshade: 20
[6]; [16]
  Plant response rating, Nightshade: 95
[6]; [17]
  Plant response rating, Nightshade: 100
[6]; [18]
  Nightshade plant response rating: 100
[7]; [15]
  Plant response rating, Pigweed: 95
[7]; [16]
  Plant response rating, Pigweed: 100
[7]; [17]
  Plant response rating, Pigweed: 100
[7]; [18]
  Pigweed plant response rating: 100
[8]; [15]
  Plant response rating, Soybean: 0
[8]; [16]
  Plant response rating, Soybean: 0
[8]; [17]
  Plant response rating, Soybean: 0
[8]; [18]
  Soybean plant response rating: 30
[9]; [15]
  Plant response rating, Velvetleaf: 5
[9]; [16]
  Plant response rating, Velvetleaf: 10
[9]; [17]
  Plant response rating, Velvetleaf: 100
[9]; [18]
  Velvetleaf plant response rating: 100

## CCn1nc(C(C)(C)C)cc1C(=O)Nc1ccc(F)c(C(=O)NCCF)c1 [Compound 60]
[1]; [10]
  Plant response rating, Velvetleaf: 20
[1]; Preemergence, 500 g ai/ha, visual rating, 0 to 100 scale (0 no effect, 100 complete control)
  Velvetleaf plant response rating: 65
[1]; Preemergence, 2000 g ai/ha, 0 to 100 scale, 0 no effect, 100 complete control
  Velvetleaf plant response rating: 95
[2]; [19]
  Plant response rating, Corn: 20
[2]; [20]
  Corn plant response rating: 0
[2]; [13]
  Corn plant response rating: 10
[2]; [21]
  Plant response rating, Corn: 0
[3]; [19]
  Plant response rating, Crabgrass, Large: 20
[3]; [20]
  Crabgrass, Large plant response rating: 100
[3]; [13]
  Crabgrass, Large plant response rating: 10
[3]; [21]
  Plant response rating, Crabgrass, Large: 90
[4]; [22]
  Plant response rating, Surinam Grass: 0
[4]; 62 g ai/ha, preemergence
  Plant response rating (0 = no effect, 100 = complete control), Surinam Grass: 0
[4]; [16]
  Plant response rating, Surinam Grass: 0
[4]; [23]
  Plant response rating, Surinam Grass: 50
[4]; [24]
  Plant response rating, Surinam Grass: 5
[4]; [25]
  Plant response rating, Surinam Grass: 5
[4]; [26]
  Plant response rating, Surinam Grass: 5
[5]; [22]
  Plant response rating, Cocklebur: 0
[5]; 62 g ai/ha, preemergence
  Plant response rating (0 = no effect, 100 = complete control), Cocklebur: 0
[5]; [16]
  Plant response rating, Cocklebur: 0
[5]; [23]
  Plant response rating, Cocklebur: 5
[5]; [24]
  Plant response rating, Cocklebur: 10
[5]; [25]
  Plant response rating, Cocklebur: 10
[5]; postemergence, 31 g ai/ha, scale 0 to 100
  Plant response rating, Cocklebur: 10
[5]; [26]
  Plant response rating, Cocklebur: 10
[6]; [22]
  Plant response rating, Nightshade: 10
[6]; 62 g ai/ha, preemergence
  Plant response rating (0 = no effect, 100 = complete control), Nightshade: 30
[6]; [16]
  Plant response rating, Nightshade: 90
[6]; [23]
  Plant response rating, Nightshade: 90
[7]; [22]
  Plant response rating, Pigweed: 100
[7]; 62 g ai/ha, preemergence
  Plant response rating (0 = no effect, 100 = complete control), Pigweed: 100
[7]; [16]
  Plant response rating, Pigweed: 100
[7]; [23]
  Plant response rating, Pigweed: 100
[7]; [24]
  Plant response rating, Pigweed: 60
[7]; [25]
  Plant response rating, Pigweed: 40
[7]; [26]
  Plant response rating, Pigweed: 40
[8]; [22]
  Plant response rating, Soybean: 0
[8]; 62 g ai/ha, preemergence
  Plant response rating (0 = no effect, 100 = complete control), Soybean: 0
[8]; [16]
  Plant response rating, Soybean: 0
[8]; [23]
  Plant response rating, Soybean: 0
[8]; [24]
  Plant response rating, Soybean: 50
[8]; [25]
  Plant response rating, Soybean: 40
[8]; [26]
  Plant response rating, Soybean: 20
[9]; [22]
  Plant response rating, Velvetleaf: 5
[9]; [16]
  Plant response rating, Velvetleaf: 70
[9]; [23]
  Plant response rating, Velvetleaf: 85
[9]; [24]
  Plant response rating, Velvetleaf: 30
[9]; [25]
  Plant response rating, Velvetleaf: 20
[9]; [26]
  Plant response rating, Velvetleaf: 20
